Literature values, collected in US20070212387A1, “COATINGS FOR IMPLANTABLE MEDICAL DEVICES” (Sahajanand Medical Technologies Pvt. Ltd., priority 2006, published 2007).

Legend:
[1] = in water

Row | water solubility [1] | Compound | concentration preventing collagen induced platelet aggregation (platelets)
1 | greater water solubility than genistein | O=c1c(-c2ccc(O)cc2)coc2cc(O[C@@H]3O[C@H](CO)[C@@H](O)[C@H](O)[C@H]3O)cc(O)c12 [Genistin] | –
2 | practically insoluble in water | O=c1c(-c2ccc(O)cc2)coc2cc(O)cc(O)c12 [Genistein, 5,7-dihydroxy-3-(4-hydroxyphenyl)-4H-1-benzopyran-4-one] | more than 25 μM
3 | practically insoluble in water | O=c1c(O)c(-c2ccc(O)c(O)c2)oc2cc(O)cc(O)c12 [Quercetin, 2-(3,4-dihydroxyphenyl)-3,5,7-trihydroxy-4H-1-benzopyran-4-one] | –
